Measurements published in ChEMBL document CHEMBL1811912, “Human HDAC isoform selectivity achieved via exploitation of the acetate release channel with structurally unique small molecule inhibitors” (Bioorg Med Chem, 2011).

What was measured:
Histone deacetylase 1 = Histone deacetylase 1 (Homo sapiens, UniProt Q13547); assay: Inhibition of human HDAC1 using rhodamine as substrate after 1 hrs by fluorescence assay
[1] = target: T1, Protein deacetylase HDAC6 (Homo sapiens, UniProt Q9UBN7); assay: Inhibition of human HDAC6 using rhodamine as substrate after 1 hrs by fluorescence assay
T1 sequence (Q9UBN7 whole entry): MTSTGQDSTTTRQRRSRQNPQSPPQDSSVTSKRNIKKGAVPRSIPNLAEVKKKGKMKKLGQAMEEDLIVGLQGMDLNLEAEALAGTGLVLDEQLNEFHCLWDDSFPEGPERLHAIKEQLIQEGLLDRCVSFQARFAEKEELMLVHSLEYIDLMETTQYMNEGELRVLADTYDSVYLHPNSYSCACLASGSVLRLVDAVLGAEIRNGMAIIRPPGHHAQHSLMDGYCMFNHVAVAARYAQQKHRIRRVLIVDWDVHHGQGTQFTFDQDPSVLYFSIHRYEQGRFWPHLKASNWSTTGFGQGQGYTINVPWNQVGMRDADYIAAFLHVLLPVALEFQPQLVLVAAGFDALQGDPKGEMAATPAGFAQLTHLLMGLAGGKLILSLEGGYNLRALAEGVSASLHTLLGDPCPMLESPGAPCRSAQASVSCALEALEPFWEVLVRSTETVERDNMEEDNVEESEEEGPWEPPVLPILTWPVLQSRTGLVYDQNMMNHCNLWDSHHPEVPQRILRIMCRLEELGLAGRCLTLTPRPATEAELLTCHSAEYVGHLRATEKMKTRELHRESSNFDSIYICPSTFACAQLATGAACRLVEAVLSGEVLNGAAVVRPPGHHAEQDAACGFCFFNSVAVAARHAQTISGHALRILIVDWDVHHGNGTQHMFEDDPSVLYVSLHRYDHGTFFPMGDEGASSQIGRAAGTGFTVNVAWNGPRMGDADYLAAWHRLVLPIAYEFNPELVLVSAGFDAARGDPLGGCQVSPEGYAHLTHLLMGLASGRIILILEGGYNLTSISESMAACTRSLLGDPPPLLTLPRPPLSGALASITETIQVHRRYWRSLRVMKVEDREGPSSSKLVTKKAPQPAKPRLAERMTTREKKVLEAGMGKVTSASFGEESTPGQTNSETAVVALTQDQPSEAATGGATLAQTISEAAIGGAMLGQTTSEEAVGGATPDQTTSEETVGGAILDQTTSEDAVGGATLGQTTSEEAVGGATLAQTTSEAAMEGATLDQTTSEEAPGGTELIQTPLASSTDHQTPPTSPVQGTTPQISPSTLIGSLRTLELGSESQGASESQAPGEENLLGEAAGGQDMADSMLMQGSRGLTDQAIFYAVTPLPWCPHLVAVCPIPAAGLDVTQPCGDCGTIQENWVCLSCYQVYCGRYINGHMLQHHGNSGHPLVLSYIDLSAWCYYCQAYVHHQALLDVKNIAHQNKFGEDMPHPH

Histone deacetylase 2 = Histone deacetylase 2 (Homo sapiens, UniProt Q92769); assay: Inhibition of human HDAC2 using rhodamine as substrate after 1 hrs by fluorescence assay
Chain of Histone deacetylase 2 (Q92769 whole entry): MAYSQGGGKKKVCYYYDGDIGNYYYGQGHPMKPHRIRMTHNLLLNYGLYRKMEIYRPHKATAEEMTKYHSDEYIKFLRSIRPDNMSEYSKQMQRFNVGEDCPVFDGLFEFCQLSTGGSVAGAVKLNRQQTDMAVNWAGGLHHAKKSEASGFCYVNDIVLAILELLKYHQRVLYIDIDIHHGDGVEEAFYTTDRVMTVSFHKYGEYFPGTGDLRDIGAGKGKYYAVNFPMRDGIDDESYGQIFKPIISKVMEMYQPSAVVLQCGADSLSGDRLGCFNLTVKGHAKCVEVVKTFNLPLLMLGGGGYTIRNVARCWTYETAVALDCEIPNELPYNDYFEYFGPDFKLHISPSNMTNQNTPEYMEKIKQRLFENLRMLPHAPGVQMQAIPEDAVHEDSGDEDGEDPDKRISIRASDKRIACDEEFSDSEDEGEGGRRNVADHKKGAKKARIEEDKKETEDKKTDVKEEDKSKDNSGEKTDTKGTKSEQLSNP

Chain of Histone deacetylase 1 (Q13547 whole entry): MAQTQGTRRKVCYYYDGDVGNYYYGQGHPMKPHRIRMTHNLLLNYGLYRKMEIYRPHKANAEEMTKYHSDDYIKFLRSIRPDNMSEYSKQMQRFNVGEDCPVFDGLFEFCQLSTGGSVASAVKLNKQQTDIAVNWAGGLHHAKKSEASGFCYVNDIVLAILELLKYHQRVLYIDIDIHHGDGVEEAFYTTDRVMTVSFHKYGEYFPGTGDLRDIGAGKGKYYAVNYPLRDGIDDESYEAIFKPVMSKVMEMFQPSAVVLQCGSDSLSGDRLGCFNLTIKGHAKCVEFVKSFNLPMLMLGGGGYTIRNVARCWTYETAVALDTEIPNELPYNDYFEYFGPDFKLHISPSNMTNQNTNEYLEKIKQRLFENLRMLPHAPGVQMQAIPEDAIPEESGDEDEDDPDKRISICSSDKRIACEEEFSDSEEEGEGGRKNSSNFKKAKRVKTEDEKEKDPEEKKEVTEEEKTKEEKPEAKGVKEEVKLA

| IC50 (Histone deacetylase 1) [µM] | IC50 [1] [µM] | IC50 (Histone deacetylase 2) [µM] | SMILES |
| --- | --- | --- | --- |
| > 30 | > 30 | > 30 | N[C@H](Cc1cccc(Cl)c1)C(=O)N1CCN(C(=O)c2cc(F)ccc2F)CC1 |
|  | > 30 | 3.9 | N[C@H](Cc1ccc(Cl)cc1Cl)C(=O)N1Cc2ccccc2C1 |
